From US20230212180A1, “SUBSTITUTED PYRAZINE COMPOUND, PHARMACEUTICAL COMPOSITION COMPRISING SAME, AND USE THEREOF” (Sichuan Kelun-Biotech Biopharmaceutical Co., Ltd., priority 2020, published 2023)
Changes are numbered by the printed parent chain.

Tests used:
Assay in all cases: Kinase selectivity test (ThermoFisher)
Type in all cases: biochemical
Set-up in all cases: concentration or dose not given beside the values
AAK1 = target: T1, AAK1 (Homo sapiens, UniProt Q2M2I8)
T1 construct: purchased ThermoFisher USA (contract testing)
Description: (§1) Test Example 11: Kinase Selectivity Test
(§2) 1. Experimental Purpose: Tests for selectivity of the compounds of the present disclosure for a plurality of kinases were carried out to assess the safety risk of the compounds of the present disclosure.
(§3) 2. Test institution: ThermoFisher USA
(§4) 3. Testing methods: LanthaScreen binding, Z′-LYTE, Adapta
(§5) 4. Test targets: 100 targets in total

CAMK1 (CaMK1) = target: T2, CAMK1 (CaMK1) (Homo sapiens, UniProt Q14012)
T2 construct: purchased ThermoFisher USA (contract testing)
Description: as §1, §2, §3, §4, §5

CDK8/ cyclin C = target: T3, CDK8/ cyclin C (Homo sapiens, UniProt P49336)
T3 construct: purchased ThermoFisher USA (contract testing)
Description: as §1, §2, §3, §4, §5

FLT3 = target: T4, FLT3 (Homo sapiens, UniProt P36888)
T4 construct: purchased ThermoFisher USA (contract testing)
T4 sequence (P36888 27-993): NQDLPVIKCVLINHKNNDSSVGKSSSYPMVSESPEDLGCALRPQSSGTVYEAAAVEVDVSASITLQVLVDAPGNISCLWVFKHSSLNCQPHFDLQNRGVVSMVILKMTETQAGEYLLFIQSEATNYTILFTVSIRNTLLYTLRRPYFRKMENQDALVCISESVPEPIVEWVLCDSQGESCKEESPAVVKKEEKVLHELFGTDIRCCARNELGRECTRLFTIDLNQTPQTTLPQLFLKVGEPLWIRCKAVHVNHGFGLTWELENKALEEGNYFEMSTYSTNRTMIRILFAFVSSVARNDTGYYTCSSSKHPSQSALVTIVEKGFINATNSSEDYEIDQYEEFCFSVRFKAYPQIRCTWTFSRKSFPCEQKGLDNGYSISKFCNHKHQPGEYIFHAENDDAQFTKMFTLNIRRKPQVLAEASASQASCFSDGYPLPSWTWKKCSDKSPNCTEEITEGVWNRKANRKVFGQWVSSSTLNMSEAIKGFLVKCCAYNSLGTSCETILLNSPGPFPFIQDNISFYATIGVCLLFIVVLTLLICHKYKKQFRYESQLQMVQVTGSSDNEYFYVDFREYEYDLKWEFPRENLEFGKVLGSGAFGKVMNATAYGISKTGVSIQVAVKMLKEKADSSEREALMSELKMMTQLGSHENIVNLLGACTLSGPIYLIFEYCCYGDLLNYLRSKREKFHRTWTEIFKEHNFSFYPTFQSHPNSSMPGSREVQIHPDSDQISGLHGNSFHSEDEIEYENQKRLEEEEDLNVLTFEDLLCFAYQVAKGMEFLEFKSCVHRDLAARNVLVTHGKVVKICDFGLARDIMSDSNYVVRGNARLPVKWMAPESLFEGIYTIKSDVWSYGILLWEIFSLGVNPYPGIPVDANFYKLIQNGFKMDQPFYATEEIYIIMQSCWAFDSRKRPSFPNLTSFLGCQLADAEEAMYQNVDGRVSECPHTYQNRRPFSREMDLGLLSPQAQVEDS
Description: as §1, §2, §3, §4, §5

FLT3 D835Y = target: T5, FLT3 D835Y (Homo sapiens, UniProt P36888, D835Y)
T5 construct: purchased ThermoFisher USA (contract testing)
T5 sequence (P36888 27-993 D835Y): T4 sequence (P36888 27-993) with D809Y
Description: as §1, §2, §3, §4, §5

GSK3A (GSK3 alpha) = target: T6, GSK3A (GSK3 alpha) (Homo sapiens, UniProt P49840)
T6 construct: purchased ThermoFisher USA (contract testing)
Description: as §1, §2, §3, §4, §5

GSK3B (GSK3 beta) = target: T7, GSK3B (GSK3 beta) (Homo sapiens, UniProt P49841)
T7 construct: purchased ThermoFisher USA (contract testing)
Description: as §1, §2, §3, §4, §5

KDR (VEGFR2) = target: T8, KDR (VEGFR2) (Homo sapiens, UniProt P35968)
T8 construct: purchased ThermoFisher USA (contract testing)
Description: as §1, §2, §3, §4, §5

MET (cMet) = target: T9, MET (cMet) (Homo sapiens, UniProt P08581)
T9 construct: purchased ThermoFisher USA (contract testing)
Description: as §1, §2, §3, §4, §5

T8 sequence (P35968 20-1356): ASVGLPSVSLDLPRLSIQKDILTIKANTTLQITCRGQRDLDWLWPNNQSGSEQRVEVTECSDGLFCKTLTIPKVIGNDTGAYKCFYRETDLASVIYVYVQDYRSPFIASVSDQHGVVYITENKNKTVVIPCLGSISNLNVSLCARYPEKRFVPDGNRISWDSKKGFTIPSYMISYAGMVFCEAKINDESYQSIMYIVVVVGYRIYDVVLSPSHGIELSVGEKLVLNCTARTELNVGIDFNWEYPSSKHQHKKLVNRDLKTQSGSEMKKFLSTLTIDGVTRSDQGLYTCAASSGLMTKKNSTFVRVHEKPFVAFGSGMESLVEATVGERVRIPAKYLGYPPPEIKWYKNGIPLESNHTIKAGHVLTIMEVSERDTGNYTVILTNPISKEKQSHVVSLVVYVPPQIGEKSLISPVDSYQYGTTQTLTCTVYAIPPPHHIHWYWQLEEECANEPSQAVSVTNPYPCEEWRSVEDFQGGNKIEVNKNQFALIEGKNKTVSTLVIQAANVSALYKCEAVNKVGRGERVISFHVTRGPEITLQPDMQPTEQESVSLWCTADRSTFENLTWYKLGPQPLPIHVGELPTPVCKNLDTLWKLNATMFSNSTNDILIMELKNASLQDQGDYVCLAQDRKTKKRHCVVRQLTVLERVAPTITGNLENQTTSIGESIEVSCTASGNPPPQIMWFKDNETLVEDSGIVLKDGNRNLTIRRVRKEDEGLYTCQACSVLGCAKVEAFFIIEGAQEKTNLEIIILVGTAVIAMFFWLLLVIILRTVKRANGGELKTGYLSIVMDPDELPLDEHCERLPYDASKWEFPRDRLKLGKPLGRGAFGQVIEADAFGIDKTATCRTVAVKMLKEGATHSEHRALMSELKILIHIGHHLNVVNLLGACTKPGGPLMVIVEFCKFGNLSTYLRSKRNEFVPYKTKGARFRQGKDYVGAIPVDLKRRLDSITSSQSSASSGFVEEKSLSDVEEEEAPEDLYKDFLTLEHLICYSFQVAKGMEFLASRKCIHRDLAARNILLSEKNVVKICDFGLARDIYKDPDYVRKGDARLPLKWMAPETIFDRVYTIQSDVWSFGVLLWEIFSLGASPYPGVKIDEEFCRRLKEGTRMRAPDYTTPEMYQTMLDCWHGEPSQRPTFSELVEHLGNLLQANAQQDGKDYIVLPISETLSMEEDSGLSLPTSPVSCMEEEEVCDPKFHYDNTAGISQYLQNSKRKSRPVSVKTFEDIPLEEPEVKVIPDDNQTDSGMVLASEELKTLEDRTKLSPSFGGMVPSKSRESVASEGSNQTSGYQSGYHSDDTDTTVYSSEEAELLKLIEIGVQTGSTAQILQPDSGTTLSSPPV
T2 sequence (Q14012 whole entry): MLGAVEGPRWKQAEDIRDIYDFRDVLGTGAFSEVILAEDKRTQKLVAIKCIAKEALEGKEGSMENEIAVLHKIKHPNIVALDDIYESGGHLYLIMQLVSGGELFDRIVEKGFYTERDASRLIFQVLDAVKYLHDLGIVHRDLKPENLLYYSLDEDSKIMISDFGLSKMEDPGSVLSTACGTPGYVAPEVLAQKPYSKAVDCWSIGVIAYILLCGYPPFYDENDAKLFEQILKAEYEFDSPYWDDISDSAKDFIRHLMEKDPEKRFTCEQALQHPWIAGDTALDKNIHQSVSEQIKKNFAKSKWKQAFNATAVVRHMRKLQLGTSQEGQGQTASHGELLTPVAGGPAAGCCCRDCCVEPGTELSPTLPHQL
T1 sequence (Q2M2I8 whole entry): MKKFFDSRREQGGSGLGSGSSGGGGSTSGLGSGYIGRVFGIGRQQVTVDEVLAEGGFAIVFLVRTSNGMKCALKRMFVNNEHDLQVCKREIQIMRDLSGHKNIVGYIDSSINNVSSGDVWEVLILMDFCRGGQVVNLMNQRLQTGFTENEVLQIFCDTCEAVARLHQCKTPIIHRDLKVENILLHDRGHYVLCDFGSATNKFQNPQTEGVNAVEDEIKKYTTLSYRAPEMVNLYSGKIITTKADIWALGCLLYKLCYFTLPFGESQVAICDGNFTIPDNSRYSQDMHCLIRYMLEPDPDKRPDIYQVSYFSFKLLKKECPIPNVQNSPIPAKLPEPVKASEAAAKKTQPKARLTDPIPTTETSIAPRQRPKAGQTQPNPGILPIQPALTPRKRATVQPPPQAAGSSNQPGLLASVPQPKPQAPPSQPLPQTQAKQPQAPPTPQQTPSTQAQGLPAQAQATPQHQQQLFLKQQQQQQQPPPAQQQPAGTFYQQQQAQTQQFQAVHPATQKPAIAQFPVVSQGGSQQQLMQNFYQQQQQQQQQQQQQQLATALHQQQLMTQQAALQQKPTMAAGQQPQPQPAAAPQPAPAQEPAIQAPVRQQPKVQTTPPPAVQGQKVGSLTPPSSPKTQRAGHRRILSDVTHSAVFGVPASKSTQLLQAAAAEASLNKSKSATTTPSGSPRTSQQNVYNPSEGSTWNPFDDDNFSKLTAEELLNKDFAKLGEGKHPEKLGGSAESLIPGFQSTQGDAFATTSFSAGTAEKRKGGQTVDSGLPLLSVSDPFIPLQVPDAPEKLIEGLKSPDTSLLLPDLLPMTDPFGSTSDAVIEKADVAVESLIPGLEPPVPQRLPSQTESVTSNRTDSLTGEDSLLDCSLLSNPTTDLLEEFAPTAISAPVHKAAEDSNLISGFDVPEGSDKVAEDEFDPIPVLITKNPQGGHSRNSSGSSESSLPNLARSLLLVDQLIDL
T7 sequence (P49841 whole entry): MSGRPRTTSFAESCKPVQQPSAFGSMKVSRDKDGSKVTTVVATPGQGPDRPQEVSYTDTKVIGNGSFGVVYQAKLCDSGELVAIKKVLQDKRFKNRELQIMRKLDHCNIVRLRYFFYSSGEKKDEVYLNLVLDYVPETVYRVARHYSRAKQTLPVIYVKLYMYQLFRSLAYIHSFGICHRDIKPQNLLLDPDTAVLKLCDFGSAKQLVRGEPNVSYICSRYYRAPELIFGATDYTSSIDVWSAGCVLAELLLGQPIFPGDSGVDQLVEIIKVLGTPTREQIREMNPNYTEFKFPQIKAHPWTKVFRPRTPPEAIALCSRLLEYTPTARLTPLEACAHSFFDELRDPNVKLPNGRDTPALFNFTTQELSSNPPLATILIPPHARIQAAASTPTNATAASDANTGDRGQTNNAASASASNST
T9 sequence (P08581 25-1390): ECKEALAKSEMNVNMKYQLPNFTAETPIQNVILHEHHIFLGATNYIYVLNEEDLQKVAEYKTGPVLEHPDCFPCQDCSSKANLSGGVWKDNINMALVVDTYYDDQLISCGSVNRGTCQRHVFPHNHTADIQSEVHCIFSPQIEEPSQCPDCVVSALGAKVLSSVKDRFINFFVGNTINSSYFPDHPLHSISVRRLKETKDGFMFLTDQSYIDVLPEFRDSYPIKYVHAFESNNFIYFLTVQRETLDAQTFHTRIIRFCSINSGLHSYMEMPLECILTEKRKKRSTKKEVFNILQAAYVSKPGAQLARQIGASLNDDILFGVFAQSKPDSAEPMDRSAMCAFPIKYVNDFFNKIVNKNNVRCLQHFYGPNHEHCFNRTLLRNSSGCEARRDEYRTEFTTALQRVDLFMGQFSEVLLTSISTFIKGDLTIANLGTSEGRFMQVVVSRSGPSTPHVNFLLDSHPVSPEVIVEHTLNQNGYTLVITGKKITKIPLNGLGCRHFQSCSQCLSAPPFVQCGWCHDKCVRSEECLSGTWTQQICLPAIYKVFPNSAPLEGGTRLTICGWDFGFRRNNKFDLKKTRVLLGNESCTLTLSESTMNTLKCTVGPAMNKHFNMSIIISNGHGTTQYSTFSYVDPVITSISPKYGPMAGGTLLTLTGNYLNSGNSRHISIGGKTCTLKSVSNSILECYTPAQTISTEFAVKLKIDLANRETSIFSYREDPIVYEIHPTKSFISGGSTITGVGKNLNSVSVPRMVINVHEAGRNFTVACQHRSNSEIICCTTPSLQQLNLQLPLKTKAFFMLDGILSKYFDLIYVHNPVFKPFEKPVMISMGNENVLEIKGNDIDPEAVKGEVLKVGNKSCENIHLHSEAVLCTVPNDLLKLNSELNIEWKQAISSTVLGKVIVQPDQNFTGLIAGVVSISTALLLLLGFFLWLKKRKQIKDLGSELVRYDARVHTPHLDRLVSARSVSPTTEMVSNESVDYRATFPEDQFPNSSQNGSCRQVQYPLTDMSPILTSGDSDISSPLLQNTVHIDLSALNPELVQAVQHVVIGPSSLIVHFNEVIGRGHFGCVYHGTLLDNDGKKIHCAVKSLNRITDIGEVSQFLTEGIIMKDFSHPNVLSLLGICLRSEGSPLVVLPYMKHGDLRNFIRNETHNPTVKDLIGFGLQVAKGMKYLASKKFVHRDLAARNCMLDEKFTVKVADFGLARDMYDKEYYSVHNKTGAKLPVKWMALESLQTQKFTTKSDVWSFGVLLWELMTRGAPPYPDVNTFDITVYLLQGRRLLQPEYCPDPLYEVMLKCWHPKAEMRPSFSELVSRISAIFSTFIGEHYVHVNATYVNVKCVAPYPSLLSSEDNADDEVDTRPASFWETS
T6 sequence (P49840 whole entry): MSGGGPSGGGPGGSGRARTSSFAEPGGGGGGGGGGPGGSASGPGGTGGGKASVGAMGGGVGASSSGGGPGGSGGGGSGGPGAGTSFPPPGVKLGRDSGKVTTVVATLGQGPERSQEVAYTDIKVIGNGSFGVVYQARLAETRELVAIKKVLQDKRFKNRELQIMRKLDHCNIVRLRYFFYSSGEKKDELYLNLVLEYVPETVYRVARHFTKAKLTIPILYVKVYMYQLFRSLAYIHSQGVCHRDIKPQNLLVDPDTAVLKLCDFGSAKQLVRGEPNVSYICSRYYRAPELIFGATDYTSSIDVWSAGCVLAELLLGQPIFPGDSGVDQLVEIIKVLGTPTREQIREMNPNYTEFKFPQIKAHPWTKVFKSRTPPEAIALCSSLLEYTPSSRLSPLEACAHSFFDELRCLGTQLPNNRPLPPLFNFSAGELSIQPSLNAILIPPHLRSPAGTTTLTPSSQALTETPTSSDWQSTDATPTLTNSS

C[C@@H]1OCC2(CCN(c3ncc(Sc4ccnc(N5CC(C(C)(C)O)C5)c4Cl)nc3CO)CC2)[C@@H]1N [Example 12, 2-(1-(4-(5-((3S,4S)-4-amino-3-methyl-2-oxa-8-azaspiro[4.5]decan-8-yl)-6-(hydroxymethyl)pyrazin-2-ylthio)-3-chloropyridin-2-yl)azetidin-3-yl)propan-2-ol]
Inhibition (%) Target 1 (AAK1): 3% | Inhibition (%) Target 2 (AAK1): 0% | Inhibition (%) Mean value (AAK1): 1% | Inhibition (%) Target 1 (CAMK1 (CaMK1)): −9% | Inhibition (%) Target 2 (CAMK1 (CaMK1)): −16% | Inhibition (%) Mean value (CAMK1 (CaMK1)): −12% | Inhibition (%) Target 1 (CDK8/ cyclin C): 7% | Inhibition (%) Target 2 (CDK8/ cyclin C): −3% | Inhibition (%) Mean value (CDK8/ cyclin C): 2% | Inhibition (%) Target 1 (FLT3): 11% | Inhibition (%) Target 2 (FLT3): 8% | Inhibition (%) Mean value (FLT3): 9% | Inhibition (%) Target 1 (FLT3 D835Y): 5% | Inhibition (%) Target 2 (FLT3 D835Y): 6% | Inhibition (%) Mean value (FLT3 D835Y): 6% | Inhibition (%) Target 1 (GSK3A (GSK3 alpha)): 9% | Inhibition (%) Target 2 (GSK3A (GSK3 alpha)): 8% | Inhibition (%) Mean value (GSK3A (GSK3 alpha)): 8% | Inhibition (%) Target 1 (GSK3B (GSK3 beta)): 7% | Inhibition (%) Target 2 (GSK3B (GSK3 beta)): 7% | Inhibition (%) Mean value (GSK3B (GSK3 beta)): 7% | Inhibition (%) Target 1 (KDR (VEGFR2)): 3% | Inhibition (%) Target 2 (KDR (VEGFR2)): 4% | Inhibition (%) Mean value (KDR (VEGFR2)): 3% | Inhibition (%) Target 1 (MET (cMet)): −1% | Inhibition (%) Target 2 (MET (cMet)): 16% | Inhibition (%) Mean value (MET (cMet)): 7%

C[C@@H]1OCC2(CCN(c3cnc(Sc4ccnc(N)c4Cl)c(N)n3)CC2)[C@@H]1N [TNO-155, reference compound]
Inhibition (%) Target 1 (AAK1): 49% | Inhibition (%) Target 2 (AAK1): 46% | Inhibition (%) Mean value (AAK1): 48% | Inhibition (%) Target 1 (CAMK1 (CaMK1)): 55% | Inhibition (%) Target 2 (CAMK1 (CaMK1)): 46% | Inhibition (%) Mean value (CAMK1 (CaMK1)): 51% | Inhibition (%) Target 1 (CDK8/ cyclin C): 89% | Inhibition (%) Target 2 (CDK8/ cyclin C): 89% | Inhibition (%) Mean value (CDK8/ cyclin C): 89% | Inhibition (%) Target 1 (FLT3): 96% | Inhibition (%) Target 2 (FLT3): 97% | Inhibition (%) Mean value (FLT3): 97% | Inhibition (%) Target 1 (FLT3 D835Y): 71% | Inhibition (%) Target 2 (FLT3 D835Y): 69% | Inhibition (%) Mean value (FLT3 D835Y): 70% | Inhibition (%) Target 1 (GSK3A (GSK3 alpha)): 92% | Inhibition (%) Target 2 (GSK3A (GSK3 alpha)): 87% | Inhibition (%) Mean value (GSK3A (GSK3 alpha)): 90% | Inhibition (%) Target 1 (GSK3B (GSK3 beta)): 96% | Inhibition (%) Target 2 (GSK3B (GSK3 beta)): 96% | Inhibition (%) Mean value (GSK3B (GSK3 beta)): 96% | Inhibition (%) Target 1 (KDR (VEGFR2)): 73% | Inhibition (%) Target 2 (KDR (VEGFR2)): 73% | Inhibition (%) Mean value (KDR (VEGFR2)): 73% | Inhibition (%) Target 1 (MET (cMet)): 42% | Inhibition (%) Target 2 (MET (cMet)): 40% | Inhibition (%) Mean value (MET (cMet)): 41%
